IC50 data for 2 compounds are collected here from ChEMBL document CHEMBL1201862, “PubChem BioAssay data set” (2004).

Active and inactive are the calls of the source. Rule as the data show it: actives have a measured IC50 and inactives only a lower limit.

The target of this assay is Envelope glycoprotein gp160 (Human immunodeficiency virus 1, UniProt Q6QLK5). Put plainly: inhibitors of HIV fusion peptide binding, primary screen, biochemical, uHTS, fluorescence dequenching (AID 1986).
Sequence of Envelope glycoprotein gp160 (Q6QLK5 whole entry, the tested form may be a part): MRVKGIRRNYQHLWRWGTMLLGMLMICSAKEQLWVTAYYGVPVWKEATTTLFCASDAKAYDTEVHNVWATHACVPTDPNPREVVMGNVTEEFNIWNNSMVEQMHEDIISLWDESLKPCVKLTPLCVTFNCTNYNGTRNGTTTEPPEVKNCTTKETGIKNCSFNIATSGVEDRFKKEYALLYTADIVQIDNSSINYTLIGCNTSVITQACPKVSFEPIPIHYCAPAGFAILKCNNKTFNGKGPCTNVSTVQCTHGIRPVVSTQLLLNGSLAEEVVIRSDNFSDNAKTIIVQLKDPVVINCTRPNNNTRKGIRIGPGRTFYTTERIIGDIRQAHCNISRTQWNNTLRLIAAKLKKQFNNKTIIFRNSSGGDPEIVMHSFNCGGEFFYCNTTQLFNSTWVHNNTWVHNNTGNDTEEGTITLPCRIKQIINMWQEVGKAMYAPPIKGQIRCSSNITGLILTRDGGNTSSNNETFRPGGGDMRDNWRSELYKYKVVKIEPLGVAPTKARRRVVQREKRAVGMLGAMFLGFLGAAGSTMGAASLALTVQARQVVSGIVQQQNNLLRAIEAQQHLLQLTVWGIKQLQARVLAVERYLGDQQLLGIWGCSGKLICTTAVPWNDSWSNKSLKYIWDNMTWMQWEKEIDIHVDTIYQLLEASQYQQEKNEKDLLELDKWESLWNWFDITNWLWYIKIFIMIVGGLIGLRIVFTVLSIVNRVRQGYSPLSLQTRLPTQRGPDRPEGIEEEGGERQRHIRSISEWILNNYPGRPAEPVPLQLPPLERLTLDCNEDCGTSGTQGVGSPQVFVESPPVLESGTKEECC

For `COc1cccc(-c2nc(SCC(=O)Nc3nc(-c4ccccc4)c(C)s3)[nH]c(=O)c2C#N)c1`, the half-maximal inhibitory concentration (IC50) (as a rule, the concentration that gives 50% inhibition) is 10.3 µM (active). The result for `O=C(O)CSc1nc(-c2ccc(Cl)cc2)nc2c1oc1ccccc12` reads 15.4 µM (active).
